Data published in PubChem BioAssay (NCI).
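Growth conditions: 96-well plates. Treatment: test compound, 48 hours, 5 concentrations. Analysis: linear interpolation between bracketing concentrations; unreached endpoints set to highest concentration. GI50 marks 50% less growth. Definition used: TGI = concentration required for complete inhibition of growth.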

System: 786-0 renal
Experiment: inhibition of tumour cell growth, NCI panel, 48 h

Compound	TGI [µM]	GI50 [µM]
Cc1cn(C2CC(N(O)Cc3ccccc3)C(CO)O2)c(=O)[nH]c1=O (configuration not stated)	> 100	–
O=c1[nH]cc(COCC(F)(F)C(F)(F)C(F)(F)C(F)F)c(=O)[nH]1	> 100	–
NC1CCCC[C@H]1N.N[C@@H]1CCCC[C@@H]1N.O=C(P(=O)([O-])[O-])P(=O)([O-])[O-].[Pt+4].[Pt+4]	> 100	> 100
CC1=C(C(=O)Nc2c(C)cccc2C)C(c2ccccc2Cl)C(C(=O)Nc2c(C)cccc2C)=C(C)N1	> 100	–
N#CC(NNC(=O)Cc1ccccc1)c1ccccc1O (configuration not stated)	72.5	–
COc1c(C)c2c(c(C)c1Cl)Oc1c(C=O)c(O)c(Cl)c(C)c1C(=O)O2	> 100	–

System: A498 renal
Experiment: inhibition of tumour cell growth, NCI panel, 48 h

Compound	GI50 [µM]	TGI [µM]
NC1CCCC[C@H]1N.N[C@@H]1CCCC[C@@H]1N.O=C(P(=O)([O-])[O-])P(=O)([O-])[O-].[Pt+4].[Pt+4]	> 100	> 100
CC1=C(C(=O)Nc2c(C)cccc2C)C(c2ccccc2Cl)C(C(=O)Nc2c(C)cccc2C)=C(C)N1	–	> 100
N#CC(NNC(=O)Cc1ccccc1)c1ccccc1O (configuration not stated)	–	> 80.3
COc1c(C)c2c(c(C)c1Cl)Oc1c(C=O)c(O)c(Cl)c(C)c1C(=O)O2	–	58.8

System: A549 NSCLC
Experiment: inhibition of tumour cell growth, NCI panel, 48 h

Compound	TGI [µM]	GI50 [µM]
Cc1cn(C2CC(N(O)Cc3ccccc3)C(CO)O2)c(=O)[nH]c1=O (configuration not stated)	> 100	–
O=c1[nH]cc(COCC(F)(F)C(F)(F)C(F)(F)C(F)F)c(=O)[nH]1	> 100	–
NC1CCCC[C@H]1N.N[C@@H]1CCCC[C@@H]1N.O=C(P(=O)([O-])[O-])P(=O)([O-])[O-].[Pt+4].[Pt+4]	> 100	> 100
CC1=C(C(=O)Nc2c(C)cccc2C)C(c2ccccc2Cl)C(C(=O)Nc2c(C)cccc2C)=C(C)N1	> 100	–
N#CC(NNC(=O)Cc1ccccc1)c1ccccc1O (configuration not stated)	> 90.4	–
COc1c(C)c2c(c(C)c1Cl)Oc1c(C=O)c(O)c(Cl)c(C)c1C(=O)O2	> 100	–

System: ACHN renal
Experiment: inhibition of tumour cell growth, NCI panel, 48 h

Compound	TGI [µM]	GI50 [µM]
Cc1cn(C2CC(N(O)Cc3ccccc3)C(CO)O2)c(=O)[nH]c1=O (configuration not stated)	> 100	–
O=c1[nH]cc(COCC(F)(F)C(F)(F)C(F)(F)C(F)F)c(=O)[nH]1	> 100	–
NC1CCCC[C@H]1N.N[C@@H]1CCCC[C@@H]1N.O=C(P(=O)([O-])[O-])P(=O)([O-])[O-].[Pt+4].[Pt+4]	> 100	82.2
CC1=C(C(=O)Nc2c(C)cccc2C)C(c2ccccc2Cl)C(C(=O)Nc2c(C)cccc2C)=C(C)N1	> 100	–
N#CC(NNC(=O)Cc1ccccc1)c1ccccc1O (configuration not stated)	43.8	–
COc1c(C)c2c(c(C)c1Cl)Oc1c(C=O)c(O)c(Cl)c(C)c1C(=O)O2	69.7	–

System: BT-549 breast
Experiment: inhibition of tumour cell growth, NCI panel, 48 h

Compound	TGI [µM]
N#CC(NNC(=O)Cc1ccccc1)c1ccccc1O (configuration not stated)	> 100

System: CAKI-1 renal
Experiment: inhibition of tumour cell growth, NCI panel, 48 h

Compound	TGI [µM]	GI50 [µM]
O=c1[nH]cc(COCC(F)(F)C(F)(F)C(F)(F)C(F)F)c(=O)[nH]1	> 100	–
NC1CCCC[C@H]1N.N[C@@H]1CCCC[C@@H]1N.O=C(P(=O)([O-])[O-])P(=O)([O-])[O-].[Pt+4].[Pt+4]	> 100	> 100
CC1=C(C(=O)Nc2c(C)cccc2C)C(c2ccccc2Cl)C(C(=O)Nc2c(C)cccc2C)=C(C)N1	> 100	–
N#CC(NNC(=O)Cc1ccccc1)c1ccccc1O (configuration not stated)	> 89.9	–
COc1c(C)c2c(c(C)c1Cl)Oc1c(C=O)c(O)c(Cl)c(C)c1C(=O)O2	> 100	–

System: CCRF-CEM leukemia
Experiment: inhibition of tumour cell growth, NCI panel, 48 h

Compound	TGI [µM]	GI50 [µM]
Cc1cn(C2CC(N(O)Cc3ccccc3)C(CO)O2)c(=O)[nH]c1=O (configuration not stated)	> 100	–
O=c1[nH]cc(COCC(F)(F)C(F)(F)C(F)(F)C(F)F)c(=O)[nH]1	> 100	–
NC1CCCC[C@H]1N.N[C@@H]1CCCC[C@@H]1N.O=C(P(=O)([O-])[O-])P(=O)([O-])[O-].[Pt+4].[Pt+4]	> 100	14.1
CC1=C(C(=O)Nc2c(C)cccc2C)C(c2ccccc2Cl)C(C(=O)Nc2c(C)cccc2C)=C(C)N1	> 100	–
N#CC(NNC(=O)Cc1ccccc1)c1ccccc1O (configuration not stated)	> 54.9	–
COc1c(C)c2c(c(C)c1Cl)Oc1c(C=O)c(O)c(Cl)c(C)c1C(=O)O2	72.5	–

System: COLO 205 colon
Experiment: inhibition of tumour cell growth, NCI panel, 48 h

Compound	TGI [µM]	GI50 [µM]
Cc1cn(C2CC(N(O)Cc3ccccc3)C(CO)O2)c(=O)[nH]c1=O (configuration not stated)	> 100	–
O=c1[nH]cc(COCC(F)(F)C(F)(F)C(F)(F)C(F)F)c(=O)[nH]1	> 100	–
NC1CCCC[C@H]1N.N[C@@H]1CCCC[C@@H]1N.O=C(P(=O)([O-])[O-])P(=O)([O-])[O-].[Pt+4].[Pt+4]	> 100	> 100
CC1=C(C(=O)Nc2c(C)cccc2C)C(c2ccccc2Cl)C(C(=O)Nc2c(C)cccc2C)=C(C)N1	> 100	–
N#CC(NNC(=O)Cc1ccccc1)c1ccccc1O (configuration not stated)	> 100	–
COc1c(C)c2c(c(C)c1Cl)Oc1c(C=O)c(O)c(Cl)c(C)c1C(=O)O2	66.4	–
